In patent US20090186000A1, “USE OF THYMOSIN ALPHA 1 FOR PREPARING A MEDICAMENT FOR THE TREATMENT OF STAGE IV MALIGNANT MELANOMA” (SIGMA-TAU INDUSTRIE FARMACEUTICHE RIUNITE S.P.A., priority 2006, published 2009):
Ends that are not written are not given here.

Columns and labels:
[1] = system: metastatic melanoma; conditions: cited from earlier work
[2] = system: stage IV melanoma characterized by distant unresectable metastases; assay: Phase II clinical trial, tumor response by RECIST criteria; assay type: in vivo, human; conditions: preliminary analysis on 142 patients; higher doses of Tα1
Experimental: Trial Design phase II, randomized, stratified, open-study testing different doses of Tα1 in association with DTIC and IFNα, as first line therapy for stage IV melanoma patients characterized by distant unresectable metastases (AJCC; Journal of Clinical Oncology 2001, 19: 3635-3648) without brain metastases. The primary study end-point was tumor response, and the following combination composition were used: • DTIC (800 mg/m^2)+IFNα (3 MIU)+Tα1 (1.6 mg) (97 pts); • DTIC (800 mg/m^2)+IFNα (3 MIU)+Tα1 (3.2 mg) (97 pts); • DTIC (800 mg/m^2)+Tα1 (3.2 mg) (98 pts); • DTIC (800 mg/m^2)+IFNα (3 MIU) (94 pts);
The five groups were analyzed independently one another within the so-called “pick the winner” strategy.
Methods: Recycling every 28 days, patients were administered DTIC (800 mg/m^2) i.v. at day 1, Tα1 (1.6, 3.2 or 6.4 mg) s.c. at days 8-11 and 15-18, and IFNα (3 MIU) s.c. at day 11 and 18. Clinical response was evaluated every two cycles according to RECIST criteria (New Guidelines to Evaluate the Response to Treatment in Solid Tumors; Journal of the National Cancer Institute, 2000. 92: 205-216) utilizing a central reader.
The randomized patients were stratified according to the disease site: M1a, M1b or M1c level.
1) Patients with cutaneous, subcutaneous and/or limphnodal metastases with normal serum LDH value (from 96 to 460 U/L) were classified as M1a. […]

[3] = system: human non-small cell lung cancer (NSCLC) cells; conditions: subcutaneous, 1 or 10 mg per day; nude mice inoculated with human NSCLC cells; cited from earlier work
[4] = system: lymphosarcoma cells; conditions: BALB/c mice; cited from earlier work
[5] = DTIC alone, metastatic melanoma

| Molecule | actual overall responses ([1]; DTIC alone, metastatic melanoma, J Clin Oncol and ASCO proceedings 2004) | duration of responses (short-lived) [1, 5] | effect of responses on patients' overall survival [1, 5] | DTIC efficacy ([1]; literature population similar to 16% M1a, 25% M1b, 59% M1c) [%] | dose-response effect on tumor response [2] | tumor volume [3] | liver and lung metastases [4] | local sarcoma growth [4] |
| --- | --- | --- | --- | --- | --- | --- | --- | --- |
| CN(C)/N=N/c1[nH]cnc1C(N)=O [DTIC, Dacarbazine] | 5.5-6.8% | three to six | no evidence that these responses have any effect on the patients' overall survival | 5 |  |  |  |  |
| thymosin alpha 1 (SDAAVDTSSEITTKDLKEKKEVVEEAEN; ends and bridges not checked; UniProt P06454 2-29, looked up) [a compound well known in the medical field] |  |  |  |  | clear dose-response effect | significantly decreased | significantly reduced | significantly reduced |
